Key:
corn = experiment: Test A postemergence; assay type: in vivo, Zea mays; settings: 1000 g ai/ha, 0 to 100 scale, 0 no effect, 100 complete control
Summary of the method: (§1)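 Visual injury scored 0–100 (100 = complete control) against untreated controls about 10 days after treatment in a greenhouse. Test chemicals, formulated with surfactant in non-phytotoxic solvent, were sprayed on soil preemergence or on 2-10 cm, one- to two-leaf plants postemergence.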

galium = experiment: Test A postemergence; assay type: in vivo, Galium aparine; settings: 1000 g ai/ha, 0 to 100 scale, 0 no effect, 100 complete control
Description: (§2) Seeds of plant species selected from barnyardgrass (Echinochloa crus-galli), kochia (Kochia scoparia), ragweed (common ragweed, Ambrosia elatior), Italian ryegrass (Lolium multiflorum), large (Lg) crabgrass (Digitaria sanguinalis), giant foxtail (Setaria faberii), morningglory (Ipomoea spp.), pigweed (Amaranthus retroflexus), velvetleaf (Abutilon theophrasti), wheat (Triticum aestivum), and corn (Zea mays) were planted into a blend of loam soil and sand and treated preemergence with a directed soil spray using test chemicals formulated in a non-phytotoxic solvent mixture which included a surfactant.
(§3) At the same time, plants selected from these crop and weed species and also blackgrass (Alopecurus myosuroides), and galium (catchweed bedstraw, Galium aparine) were planted in pots containing the same blend of loam soil and sand and treated with postemergence applications of test chemicals formulated in the same manner. Plants ranged in height from 2 to 10 cm and were in the one- to two-leaf stage for the postemergence treatment. Treated plants and untreated controls were maintained in a greenhouse for approximately 10 days, after which time all treated plants were compared to untreated controls and visually evaluated for injury. Plant response ratings, summarized in Table A, are based on a 0 to 100 scale where 0 is no effect and 100 is complete control. A dash (-) response means no test result.

barnyardgrass [1] = experiment: Test A postemergence; assay type: in vivo, Echinochloa crus-galli; settings: 1000 g ai/ha, 0 to 100 scale, 0 no effect, 100 complete control
Summary of the method: as §1

pigweed [2] = experiment: Test A preemergence; assay type: in vivo, Amaranthus retroflexus; settings: 1000 g ai/ha, 0 to 100 scale, 0 no effect, 100 complete control, approx. 10 days
Summary of the method: as §1

Italian ryegrass [3] = experiment: Test A preemergence; assay type: in vivo, Lolium multiflorum; settings: 1000 g ai/ha, 0 to 100 scale, 0 no effect, 100 complete control, approx. 10 days
Description: as §2, §3

pigweed [4] = experiment: Test A postemergence; assay type: in vivo, Amaranthus retroflexus; settings: 1000 g ai/ha, 0 to 100 scale, 0 no effect, 100 complete control
Summary of the method: as §1

ragweed [5] = experiment: Test A postemergence; assay type: in vivo, Ambrosia elatior; settings: 1000 g ai/ha, 0 to 100 scale, 0 no effect, 100 complete control
Description: as §2, §3

giant foxtail [6] = experiment: Test A postemergence; assay type: in vivo, Setaria faberii; settings: 1000 g ai/ha, 0 to 100 scale, 0 no effect, 100 complete control
Summary of the method: as §1

kochia [7] = experiment: Test A postemergence; assay type: in vivo, Kochia scoparia; settings: 1000 g ai/ha, 0 to 100 scale, 0 no effect, 100 complete control
Description: as §2, §3

blackgrass = experiment: Test A postemergence; assay type: in vivo, Alopecurus myosuroides; settings: 1000 g ai/ha, 0 to 100 scale, 0 no effect, 100 complete control
Description: as §2, §3

kochia [8] = experiment: Test A preemergence; assay type: in vivo, Kochia scoparia; settings: 1000 g ai/ha, 0 to 100 scale, 0 no effect, 100 complete control, approx. 10 days
Description: as §2, §3

Italian ryegrass [9] = experiment: Test A postemergence; assay type: in vivo, Lolium multiflorum; settings: 1000 g ai/ha, 0 to 100 scale, 0 no effect, 100 complete control
Description: as §2, §3

ragweed [10] = experiment: Test A preemergence; assay type: in vivo, Ambrosia elatior; settings: 1000 g ai/ha, 0 to 100 scale, 0 no effect, 100 complete control, approx. 10 days
Description: as §2, §3

barnyardgrass [11] = experiment: Test A preemergence; assay type: in vivo, Echinochloa crus-galli; settings: 1000 g ai/ha, 0 to 100 scale, 0 no effect, 100 complete control, approx. 10 days
Summary of the method: as §1

giant foxtail [12] = experiment: Test A preemergence; assay type: in vivo, Setaria faberii; settings: 1000 g ai/ha, 0 to 100 scale, 0 no effect, 100 complete control, approx. 10 days
Summary of the method: as §1

wheat = experiment: Test A postemergence; assay type: in vivo, Triticum aestivum; settings: 1000 g ai/ha, 0 to 100 scale, 0 no effect, 100 complete control
Summary of the method: as §1

Row | Compound | Plant response rating, Corn (corn) | Plant response rating, Galium (galium) | Plant response rating, Barnyardgrass (barnyardgrass [1]) | Pigweed plant response rating (pigweed [2]) | Ryegrass, Italian plant response rating (Italian ryegrass [3]) | Plant response rating, Pigweed (pigweed [4]) | Plant response rating, Ragweed (ragweed [5]) | Plant response rating, Foxtail, Giant (giant foxtail [6]) | Plant response rating, Kochia (kochia [7]) | Plant response rating, Blackgrass (blackgrass) | Kochia plant response rating (kochia [8]) | Plant response rating, Ryegrass, Italian (Italian ryegrass [9]) | Ragweed plant response rating (ragweed [10]) | Barnyardgrass plant response rating (barnyardgrass [11]) | Foxtail, Giant plant response rating (giant foxtail [12]) | Plant response rating, Wheat (wheat)
1 | NC(=O)c1cnn(-c2ccccc2Oc2ncc(Cl)cn2)c1 [Compound 281] | 10 | 60 | 0 | 60 | 10 | 70 | 70 | 0 | 70 | 0 | 0 | 0 | 30 | 0 | 0 | 0
2 | CCOC(=O)c1cn(-c2ccccc2Oc2ncc(Cl)cn2)nn1 [Compound 302] | 0 | 0 | 0 | 0 | 0 | 0 | 0 | 0 | 0 | 0 | 0 | 0 | 0 | 0 | 0 | 0
3 | CN(C)C(=O)c1cccc(Oc2ncc(Cl)cn2)c1-n1cc(C(F)(F)F)cn1 [Compound 255] | 0 | 10 | 10 | 60 | 20 | 30 | 10 | 10 | 50 | 10 | 70 | 0 | 20 | 10 | 10 | 0
